Experimental data published in patent publication US7342012B2, “Inhibitors of αLβ2 mediated cell adhesion” (Mitsubishi Tanabe Pharma Corporation, priority 1999, dated 2008).

Structure (SMILES) | melting point
COc1cc(OC)cc(N2C(=O)N3CCCC3(Cc3ccc(Br)cc3)C2=O)c1 (stereo not shown) [Example 235] | 154.8 °C
CC(C)(C)OC(=O)c1ccc(C(=O)N[C@H]2CN3C(=O)N(c4cc(Cl)cc(Cl)c4)C(=O)[C@@]3(Cc3ccc(Br)cc3)C2)cc1 [Example 80, (5R, 7R)-5-(4-Bromobenzyl)-3-(3,5-dichlorophenyl)-7-(4-t-butoxycarbonylbenzoylamino)-1,3-diazabicyclo[3.3.0]octane-2,4-dione] | 112 °C
O=C1N(c2cc(Cl)cc(Cl)c2)C(=O)C2(Cc3ccc(Br)cc3)CCCCN12 (stereo not shown) [Example 6, 6-(4-Bromobenzyl)-8-(3,5-dichlorophenyl)-1,8-diazabicyclo[4.3.0]nonane-7,9-dione] | 128.8 °C
O=C1N(c2cc(Cl)cc(Cl)c2)C(=O)C2(Cc3ccccc3)CCCN12 (stereo not shown) [Example 267] | 173.8 °C
N#Cc1ccc(C(F)(F)C23CCCN2C(=O)N(c2cc(Cl)cc(Cl)c2)C3=O)cc1 (stereo not drawn) [Example 113, 5-(4-Cyano-α,α-difluorobenzyl)-3-(3,5-dichlorophenyl)-1,3-diazabicyclo[3.3.0]octane-2,4-dione] | 66 °C
O=C1N(c2cccc(Cl)c2)C(=O)C2(Cc3ccc(Br)cc3)CCCN12 (stereo not shown) [Example 230] | 66 °C
O=C1N(c2cc(Cl)cc(Cl)c2)C(=O)C2(Cc3ccc(-c4ccc([N+](=O)[O-])cc4)cc3)CCCN12 (stereo not shown) [Example 114, 5-[4-(4-Nitrophenyl)benzyl]-3-(3,5-dichlorophenyl)-1,3-diazabicyclo[3.3.0]octane-2,4-dione] | 72 to 73 °C
O=C(Nc1ccccc1)Nc1cccc(-c2ccc(CC34CCCN3C(=O)N(c3cc(Cl)cc(Cl)c3)C4=O)cc2)c1 (stereo not shown) [Example 126, 5-[4-[3-(Phenylureido)phenyl]benzyl]-3-(3,5-dichlorophenyl)-1,3-diazabicyclo[3.3.0]octane-2,4-dione] | 150.2 °C
COC(=O)N1CCCC2(Cc3ccc(Br)cc3)C(=O)N(c3cc(Cl)nc(Cl)c3)C(=O)N12 (stereo not shown) [Example 102, 6-(4-Bromobenzyl)-8-(2,6-dichloro-4-pyridyl)-2-methoxycarbonyl-1,2,8-triazabicyclo[4.3.0]nonane-7,9-dione] | 81 °C
O=C1N(c2cc(Cl)cc(Cl)c2)C(=O)C2(Cc3ccc(Br)cc3)CCCN12 (stereo not shown) [Example 1, 5-(4-Bromobenzyl)-3-(3,5-dichlorophenyl)-1,3-diazabicyclo[3.3.0]octane-2,4-dione] | 69.4 °C
O=C1N(c2cc(Cl)cc(Cl)c2)C(=O)C2(Cc3ccc(Br)cc3)C[C@@H](c3ccccc3)CN12 (stereo partly drawn) [Example 83, (7S)-5-(4-Bromobenzyl)-3-(3,5-dichlorophenyl)-7-phenyl-1,3-diazabicyclo[3.3.0]octane-2,4-dione] | 123.5 °C
O=C(O)CC1=CC2(Cc3ccc(Br)cc3)C(=O)N(c3cc(Cl)cc(Cl)c3)C(=O)N2C1 (stereo not shown) [Example 37, 5-(4-Bromobenzyl)-3-(3,5-dichlorophenyl)-7-carboxymethyl-1,3-diazabicyclo[3.3.0]oct-6-ene-2,4-dione] | 101.5 °C
CC(=O)N1CCN2C(=O)N(c3cc(Cl)cc(Cl)c3)C(=O)C2(Cc2ccc(Br)cc2)C1 (stereo not shown) [Example 28, 4-Acetyl-6-(4-bromobenzyl)-8-(3,5-dichloro-phenyl)-1,4,8-triazabicyclo[4.3.0]nonane-7,9-dione] | 89.6 °C
CC(C)(C)OC(=O)CN1CCN2C(=O)N(c3cc(Cl)cc(Cl)c3)C(=O)C2(Cc2ccc(Br)cc2)C1 (stereo not shown) [Example 30, 4-(tert-Butoxycarbonylmethyl)-6-(4-bromobenzyl)-8-(3,5-dichlorophenyl)-1,4,8-triazabicyclo[4.3.0]nonane-7,9-dione] | 74.7 °C
N#Cc1ccc(CC23CCCN2C(=O)N(c2cc(Cl)cc(Cl)c2N)C3=O)cc1 (stereo not shown) [Example 240, 5-(4-Cyanobenzyl)-3-(2-amino-3,5-dichlorophenyl)-1,3-diazabicyclo[3.3.0]octane-2,4-dione] | 122.2 °C

Further lines, results first:

melting point | Structure (SMILES)
141.7 °C | NC(=O)N[C@@H]1CN2C(=O)N(c3cc(Cl)nc(Cl)c3)C(=O)[C@@]2(Cc2ccc(OC(F)(F)F)cc2)C1 [Example 287, (5R, 7S)-5-[4-(Trifluoromethoxy)benzyl]-3-(2,6-dichloro-4-pyridyl)-7-ureido-1,3-diazabicyclo[3.3.0]octane-2,4-dione]
212.6 °C | CNC(=O)C1CN2C(=O)N(c3cc(Cl)cc(Cl)c3)C(=O)C2(Cc2ccc(OC(F)(F)F)cc2)C1 (stereo not shown) [Example 314]
122.7 °C | CNC(=O)C1CN2C(=O)N(c3cc(Cl)cc(Cl)c3)C(=O)C2(Cc2ccc(OC(F)(F)F)cc2)C1 (stereo not shown) [Example 319]
122.7 °C | CC(=O)NC1CN2C(=O)N(c3cc(Cl)nc(Cl)c3)C(=O)C2(Cc2ccc(OC(F)(F)F)cc2)C1 (stereo not shown) [Example 283]
126.9 °C | CC(=O)N[C@@H]1CN2C(=O)N(c3cc(Cl)nc(Cl)c3)C(=O)[C@@]2(Cc2ccc(OC(F)(F)F)cc2)C1 [Example 64, (5R,7S)-5-[4-(Trifluoromethoxy)benzyl]-3-(2,6-dichloro-4-pyridyl)-7-acetamido-1,3-diazabicyclo[3.3.0]octane-2,4-dione]
160.3 °C | O=C1N(c2cc(Cl)cc(Cl)c2)C(=O)C2(Cc3ccc(Br)cc3)CC(F)(F)CN12 (stereo not shown) [Example 110, 5-(4-Bromobenzyl)-3-(3,5-dichlorophenyl)-7,7-difluoro-1,3-diazabicyclo[3.3.0]octane-2,4-dione]
140.7 °C | CC(=O)N[C@@H]1CN2C(=O)N(c3cc(Cl)cc(Cl)c3)C(=O)[C@@]2(Cc2ccc(Br)cc2)C1 [Example 48, (5R,7S)-5-(4-Bromobenzyl)-3-(3,5-dichlorophenyl)-7-acetamido-1,3-diazabicyclo[3.3.0]octane-2,4-dione]
106.1 °C | CN(C)C(=O)C1CN2C(=O)N(c3cc(Cl)cc(Cl)c3)C(=O)C2(Cc2ccc(OC(F)(F)F)cc2)C1 (stereo not shown) [Example 313]
54 °C | CN(C)[C@@H]1CN2C(=O)N(c3cc(Cl)cc(Cl)c3)C(=O)[C@@]2(Cc2ccc(Br)cc2)C1 [Example 50, (5R,7S)-5-(4-Bromobenzyl)-3-(3,5-dichlorophenyl)-7-dimethylamino-1,3-diazabicyclo[3.3.0]octane-2,4-dione]
72.5 °C | O=C1N(c2cc(Cl)cc(Cl)c2)C(=O)C2(Cc3ccc(S(=O)(=O)C(F)(F)F)cc3)CCCN12 (stereo not shown) [Example 311]
129.5 °C | O=C1N(c2cc(Cl)nc(Cl)c2)C(=O)C2(Cc3ccc(OC(F)(F)F)cc3)C[C@H](n3cccc3)CN12 (stereo in doubt) [Example 251, (5R, 7S)-5-[4-(Trifluoromethoxy)benzyl]-3-(2,6-dichloro-4-pyridyl)-7-(1-pyrrolyl)-1,3-diazabicyclo[3.3.0]octane-2,4-dione]
136.1 °C | O=C1N(c2cc(Cl)cc(Cl)c2)C(=O)[C@]2(Cc3ccc(Br)cc3)C[C@@H](O)CN12 [Example 2, (5S, 7R)-5-(4-Bromobenzyl)-3-(3,5-dichlorophenyl)-7-hydroxy-1,3-diazabicyclo[3.3.0]octane-2,4-dione]
52.4 °C | O=C1N(c2cc(Cl)nc(Cl)c2)C(=O)[C@@]2(Cc3ccc(OC(F)(F)F)cc3)C[C@@H](O)CN12 [Example 58, (5R,7R)-5-[4-(Trifluoromethoxy)benzyl]-3-(2,6-dichloro-4-pyridyl)-7-hydroxy-1,3-diazabicyclo[3.3.0]octane-2,4-dione]
